In PubChem BioAssay (NCI):
Several values for one entry are separate records, joined by “and”; a condition that tells them apart may be missing. Equal values may be shown once.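 Briefly, cells in 96-well plates were exposed to five compound concentrations for 48 h, and endpoints were estimated by linear interpolation. The concentration for 50% growth inhibition is given as GI50. Definition used: TGI = concentration required for complete inhibition of growth.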

Assays:
Experiment in all cases: DTP human tumour cell line panel, 48 h; in the data active means GI50 below about 0.43 µM; inactive means the rest
UACC-257 melanoma = test system: UACC-257 melanoma
HCT-15 colon = test system: HCT-15 colon
HCT-116 colon = test system: HCT-116 colon
UACC-62 melanoma = test system: UACC-62 melanoma
MALME-3M melanoma = test system: MALME-3M melanoma
A549 NSCLC = test system: A549 NSCLC
COLO 205 colon = test system: COLO 205 colon
HT29 colon = test system: HT29 colon
PC-3 prostate = test system: PC-3 prostate
SK-MEL-5 melanoma = test system: SK-MEL-5 melanoma

COC(c1cccc(C(O)(C(F)(F)F)C(F)(F)F)c1)(C(F)(F)F)C(F)(F)F
31.2 µM: TGI (A549 NSCLC)
28.2 µM: TGI (UACC-62 melanoma)
31 µM: TGI (HCT-116 colon)
33.5 µM: TGI (COLO 205 colon)
42.3 µM: TGI (UACC-257 melanoma)
35.3 µM: TGI (MALME-3M melanoma)
53.9 µM: TGI (HCT-15 colon)
31.6 µM: TGI (HT29 colon)

CC(=O)CCc1ccc(OC2OC(COC(=O)c3cc(O)c(O)c(O)c3)C(O)C(O)C2OC(=O)/C=C/c2ccccc2)cc1 (configuration not stated)
82.2 µM: TGI (HT29 colon)
inactive: GI50 (HCT-15 colon) 26.2 µM | GI50 (HCT-116 colon) 15.1 µM | GI50 (PC-3 prostate) 33.4 µM | GI50 (UACC-62 melanoma) 18.4 µM | GI50 (MALME-3M melanoma) 26.8 µM | GI50 (A549 NSCLC) 25.8 µM | GI50 (COLO 205 colon) 28.1 µM | GI50 (HT29 colon) 29.6 µM | GI50 (SK-MEL-5 melanoma) 19.1 µM
89.4 µM: TGI (COLO 205 colon)
46.2 µM: TGI (MALME-3M melanoma)
59.7 µM: TGI (A549 NSCLC)
> 100 µM: TGI (HCT-15 colon) | TGI (PC-3 prostate)
36.1 µM: TGI (SK-MEL-5 melanoma)
29.9 µM: TGI (HCT-116 colon)
32.6 µM: TGI (UACC-62 melanoma)

COC(=O)C1CCC(Nc2ccc(C)cc2C)=N1 (configuration not stated)
> 100 µM: TGI (UACC-257 melanoma) | TGI (HCT-15 colon) | TGI (HCT-116 colon) | TGI (UACC-62 melanoma) | TGI (MALME-3M melanoma) | TGI (A549 NSCLC) | TGI (COLO 205 colon) | TGI (HT29 colon) | TGI (SK-MEL-5 melanoma)

C/C(=N\NC(N)=S)c1cc(C)c(C)cc1C
92 µM: TGI (MALME-3M melanoma)
47.6 µM: TGI (HT29 colon)
> 100 µM: TGI (UACC-257 melanoma) | TGI (HCT-15 colon) | TGI (HCT-116 colon) | TGI (UACC-62 melanoma) | TGI (A549 NSCLC) | TGI (COLO 205 colon) | TGI (SK-MEL-5 melanoma)

O=C(C=Nc1ccccc1C(=O)[O-])c1cccs1.O=C(C=Nc1ccccc1C(=O)[O-])c1cccs1.[Co+2]
> 100 µM: TGI (UACC-257 melanoma) | TGI (HCT-15 colon) | TGI (HCT-116 colon) | TGI (UACC-62 melanoma) | TGI (MALME-3M melanoma) | TGI (A549 NSCLC) | TGI (COLO 205 colon) | TGI (HT29 colon)

CC1(Cl)CC2OC3(Br)C=CC(C)(O)C2(CC1Br)C3(C)C (configuration not stated)
> 100 µM: TGI (UACC-257 melanoma) | TGI (HCT-15 colon) | TGI (HCT-116 colon) | TGI (UACC-62 melanoma) | TGI (MALME-3M melanoma) | TGI (A549 NSCLC) | TGI (COLO 205 colon) | TGI (HT29 colon) | TGI (SK-MEL-5 melanoma)

C/C=C/C1=C(Cl)C(=O)[C@@H](Cl)[C@@]1(O)C(=O)OC
3.22 µM: TGI (COLO 205 colon)
24.3 µM: TGI (A549 NSCLC)
4.18 µM: TGI (UACC-62 melanoma)
4.43 µM: TGI (HCT-15 colon)
3.5 µM: TGI (UACC-257 melanoma)
6.21 µM: TGI (MALME-3M melanoma)
11.7 µM: TGI (HCT-116 colon)
16.5 µM: TGI (SK-MEL-5 melanoma)
15.4 µM: TGI (HT29 colon)

COc1ccc(-n2cc(-c3cc(OC)c(OC)c(OC)c3)nc2SCc2ccccc2)cc1
> 100 µM: TGI (HCT-15 colon) | TGI (HCT-116 colon) | TGI (PC-3 prostate) | TGI (UACC-62 melanoma) | TGI (MALME-3M melanoma) | TGI (A549 NSCLC) | TGI (COLO 205 colon) | TGI (HT29 colon)
56.7 µM: TGI (SK-MEL-5 melanoma)
inactive: GI50 (HCT-15 colon) > 100 µM | GI50 (HCT-116 colon) 17.5 µM | GI50 (PC-3 prostate) 8.7 µM | GI50 (UACC-62 melanoma) 42.2 µM | GI50 (MALME-3M melanoma) > 100 µM | GI50 (A549 NSCLC) 79.6 µM | GI50 (COLO 205 colon) 49.5 µM | GI50 (HT29 colon) 35.6 µM | GI50 (SK-MEL-5 melanoma) 8.54 µM

CC1OC(n2ccc(=O)[nH]c2=O)C=C(OC(=O)c2ccccc2)C1=O (configuration not stated)
> 100 µM: TGI (UACC-257 melanoma) | TGI (HCT-15 colon) | TGI (UACC-62 melanoma) | TGI (MALME-3M melanoma) | TGI (A549 NSCLC) | TGI (COLO 205 colon) | TGI (HT29 colon) | TGI (SK-MEL-5 melanoma)

O=C(CCC(=O)Nc1cccc(Cl)c1)CC(=O)c1ccc(F)cc1
> 100 µM: TGI (UACC-257 melanoma) | TGI (HCT-15 colon) | TGI (HCT-116 colon) | TGI (UACC-62 melanoma) | TGI (MALME-3M melanoma) | TGI (A549 NSCLC) | TGI (COLO 205 colon) | TGI (HT29 colon)

[Cl][Sn]([Cl])([c]1ccccc1)[c]1ccccc1
30.5 µM: TGI (HT29 colon)
9.08 µM: TGI (UACC-62 melanoma)
8.01 µM: TGI (MALME-3M melanoma)
inactive: GI50 (UACC-257 melanoma) 13.6 µM | GI50 (HCT-15 colon) 10.3 µM | GI50 (UACC-62 melanoma) 2.87 µM | GI50 (MALME-3M melanoma) 2.68 µM | GI50 (A549 NSCLC) 19.8 µM | GI50 (HT29 colon) 16.1 µM | GI50 (SK-MEL-5 melanoma) 12.2 µM
26.9 µM: TGI (SK-MEL-5 melanoma)
39.2 µM: TGI (A549 NSCLC)
23.2 µM: TGI (HCT-15 colon)
27 µM: TGI (UACC-257 melanoma)

O=S(=O)(N/N=C/c1ccc(Cl)c(Cl)c1)c1ccccc1
> 100 µM: TGI (UACC-257 melanoma) | TGI (HCT-15 colon) | TGI (HCT-116 colon) | TGI (UACC-62 melanoma) | TGI (MALME-3M melanoma) | TGI (A549 NSCLC) | TGI (HT29 colon) | TGI (SK-MEL-5 melanoma)
39.6 µM: TGI (COLO 205 colon)

CCOC(=O)c1c(-c2ccccc2)oc(-c2ccccc2)c1C(=O)OCC
> 100 µM: TGI (UACC-257 melanoma) | TGI (HCT-116 colon) | TGI (UACC-62 melanoma) | TGI (MALME-3M melanoma) | TGI (A549 NSCLC) | TGI (COLO 205 colon) | TGI (HT29 colon) | TGI (SK-MEL-5 melanoma)

N#Cc1cccc(OCc2nc(N)nc(N)c2-c2ccc(Cl)c(Cl)c2)c1
inactive: GI50 (UACC-257 melanoma) 2.92 µM | GI50 (HCT-15 colon) 0.575 µM | GI50 (HCT-116 colon) 0.472 µM | GI50 (PC-3 prostate) 0.604 µM | GI50 (UACC-62 melanoma) 0.442 µM | GI50 (COLO 205 colon) 5.3 µM | GI50 (HT29 colon) 0.797 µM | GI50 (SK-MEL-5 melanoma) 1.29 µM
> 100 µM: TGI (UACC-257 melanoma) | TGI (HCT-15 colon) | TGI (HCT-116 colon) | TGI (PC-3 prostate) | TGI (UACC-62 melanoma) | TGI (A549 NSCLC) | TGI (COLO 205 colon) | TGI (HT29 colon) | TGI (SK-MEL-5 melanoma)
active: GI50 (A549 NSCLC) 0.426 µM

O=S(=O)(Cc1ccc(Cl)cc1Cl)c1ccc(Cl)cc1
5.52 µM: TGI (COLO 205 colon)
3.84 µM: TGI (HT29 colon)
inactive: GI50 (HCT-116 colon) 0.471 µM | GI50 (PC-3 prostate) 1.28 µM | GI50 (UACC-62 melanoma) 0.502 µM | GI50 (A549 NSCLC) 0.693 µM | GI50 (COLO 205 colon) 0.548 µM | GI50 (SK-MEL-5 melanoma) 0.437 µM
> 100 µM: TGI (HCT-15 colon) | TGI (HCT-116 colon) | TGI (PC-3 prostate) | TGI (UACC-62 melanoma) | TGI (A549 NSCLC)
24.4 µM: TGI (SK-MEL-5 melanoma)
active: GI50 (HCT-15 colon) 0.419 µM | GI50 (HT29 colon) 0.338 µM

Cc1cc(Cl)cc2c(N=Nc3ccccc3[N+](=O)[O-])c(O)[nH]c12
> 100 µM: TGI (UACC-257 melanoma) | TGI (HCT-15 colon) | TGI (HCT-116 colon) | TGI (PC-3 prostate) | TGI (UACC-62 melanoma) | TGI (A549 NSCLC) | TGI (COLO 205 colon) | TGI (SK-MEL-5 melanoma)

Cn1c2c(c3ccccc31)CCN(CCN1CCN(c3ccccc3)CC1)C2=O
> 100 µM: TGI (HCT-15 colon) | TGI (HCT-116 colon) | TGI (UACC-62 melanoma) | TGI (A549 NSCLC) | TGI (COLO 205 colon) | TGI (HT29 colon) | TGI (SK-MEL-5 melanoma)

CC(=O)O[C@@]12CO[C@@H]1C[C@H](O)[C@@]1(C)C(=O)[C@H](O)C3=C(C)[C@@H](OC(=O)[C@H](O)[C@@H](NC(=O)OC(C)(C)C)c4ccccc4)C[C@@](O)([C@@H](OC(=O)c4ccccc4)[C@H]21)C3(C)C
57.9 µM: TGI (UACC-257 melanoma)
active: GI50 (UACC-257 melanoma) 0.31 µM | GI50 (HCT-15 colon) 0.0656 µM | GI50 (HCT-116 colon) 0.00203 µM | GI50 (UACC-62 melanoma) 0.0141 µM and 0.112 µM | GI50 (A549 NSCLC) 0.00454 µM | GI50 (COLO 205 colon) 0.0023 µM and 0.000963 µM | GI50 (HT29 colon) 0.00746 µM and 0.00257 µM | GI50 (SK-MEL-5 melanoma) 0.0133 µM and 0.00609 µM
0.059 µM and 0.00717 µM: TGI (COLO 205 colon)
> 100 µM: TGI (HCT-116 colon) | TGI (PC-3 prostate)
> 82.2 µM: TGI (A549 NSCLC)
17.1 µM: TGI (HCT-15 colon) | TGI (SK-MEL-5 melanoma)

N#C/C(=N\Nc1ccc(Cl)cc1)C(=O)Nc1cc(-c2ccccc2)nn1-c1ccccc1
> 100 µM: TGI (HCT-15 colon) | TGI (HCT-116 colon) | TGI (PC-3 prostate) | TGI (UACC-62 melanoma) | TGI (A549 NSCLC) | TGI (HT29 colon)
4.51 µM: TGI (COLO 205 colon)
4.27 µM: TGI (SK-MEL-5 melanoma)
inactive: GI50 (UACC-257 melanoma) 2.35 µM | GI50 (HCT-15 colon) 2.14 µM | GI50 (HCT-116 colon) 2.7 µM | GI50 (PC-3 prostate) 2.4 µM | GI50 (UACC-62 melanoma) 2.03 µM | GI50 (A549 NSCLC) 3.2 µM | GI50 (COLO 205 colon) 2.07 µM | GI50 (HT29 colon) 3.32 µM | GI50 (SK-MEL-5 melanoma) 1.63 µM
8.62 µM: TGI (UACC-257 melanoma)
